Patent US20240000806A1, “METHODS AND MATERIALS FOR INHIBITING CB1 ACTIVITY” (University of Pittsburgh - Of the Commonwealth System of …, priority 2020, published 2024)

biological target: CB1 (CNR1) (Homo sapiens, UniProt P21554); test: cAMP CNR1 Hunter cell line antagonist assay (CB1 assay); type: cell-based; conditions: antagonist mode, cAMP CNR1 Hunter cells, EC80 agonist; read-out: CB1 assay, Efficacy (IC50)
Protocol: cAMP CNR1 Hunter cell line (Eurofins DiscoveryX) were expanded from freezer stocks and seeded in a total volume of 20 μL into white walled, 384-well microplates and incubated at 37° C. for the appropriate time prior to testing. For antagonist determination, cell media was aspirated from cells and replaced with 10 μL 1:1 HBSS/Hepes:cAMP XS+Ab reagent. 5 μL of 4× compound was added to the cells and incubated at 37° C. for 30 minutes. 5 μL of 4× EC80 agonist was added to cells and incubated at 37° C. for 30 minutes. After appropriate compound incubation, assay signal was generated through incubation with 20 μL cAMP XS+ED/CL lysis cocktail for one hour followed by incubation with 20 μL cAMP XS+EA reagent for three hours at room temperature. Microplates were read following signal generation with a PerkinElmer Envision™ instrument for chemiluminescent signal detection. Compound activity (IC50) was analyzed using CBIS data analysis suite (ChemInnovation, CA).

Chain of CB1 (CNR1) (P21554 whole entry): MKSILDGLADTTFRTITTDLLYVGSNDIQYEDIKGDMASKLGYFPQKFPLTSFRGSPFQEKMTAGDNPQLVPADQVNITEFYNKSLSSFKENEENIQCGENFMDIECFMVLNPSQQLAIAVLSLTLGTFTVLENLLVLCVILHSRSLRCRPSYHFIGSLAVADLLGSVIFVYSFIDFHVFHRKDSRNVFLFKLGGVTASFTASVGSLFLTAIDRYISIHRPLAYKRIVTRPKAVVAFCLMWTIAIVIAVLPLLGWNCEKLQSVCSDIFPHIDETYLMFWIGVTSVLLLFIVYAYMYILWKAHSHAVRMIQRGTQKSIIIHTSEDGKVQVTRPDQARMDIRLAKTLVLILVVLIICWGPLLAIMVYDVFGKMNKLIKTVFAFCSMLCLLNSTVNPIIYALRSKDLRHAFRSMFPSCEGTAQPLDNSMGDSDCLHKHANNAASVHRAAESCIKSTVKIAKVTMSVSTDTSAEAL

| Structure (SMILES) | IC50 |
| --- | --- |
| CCC1Oc2c(cc(Br)cc2S(=O)(=O)NC2CCC(O)CC2)NC1=O (stereo not shown) [BC19378] | 1 to 25 µM |
| CC1Oc2c(cc(Br)cc2S(=O)(=O)Nc2ccc(OC(F)(F)F)cc2)N(C)C1=O (stereo not shown) [BC19783] | 1 to 25 µM |
| O=C1CCOc2c(cc(Br)cc2S(=O)(=O)Nc2cccc(F)c2)N1 [BC19649] | ≥ 25 µM |
| CCC1Oc2c(cc(Br)cc2S(=O)(=O)Nc2ccccc2)N(C)C1=O (stereo not shown) [BC19927] | ≥ 25 µM |
| CC(C)CC1Oc2cc(S(=O)(=O)Nc3cccc(F)c3)c(Br)cc2NC1=O (stereo not shown) [BC19774] | ≥ 25 µM |
| O=C(O)c1cc2c(c(NS(=O)(=O)c3ccc(F)c(F)c3)c1)N1CCCC1C(=O)N2 (stereo not shown) [BC19917] | 1 to 25 µM |
| CC1Oc2c(cc(Br)cc2S(=O)(=O)Nc2ccc(F)cc2Cl)N(C)C1=O (stereo not shown) [BC19908] | ≥ 25 µM |
| CC(C)NS(=O)(=O)c1cc2c(cc1Cl)NC(=O)C(C)O2 (stereo not shown) [BC19207] | ≥ 25 µM |
| O=C1COc2cc(S(=O)(=O)Nc3ccc(Cl)cc3)c(Cl)cc2N1 [BC19133] | < 1 µM |
| O=C1CCOc2c(cc(Br)cc2S(=O)(=O)Nc2cccc(Cl)c2)N1 [BC19650] | ≥ 25 µM |
| NS(=O)(=O)c1ccc2c(c1)N1CCCC1C(=O)N2 (stereo not shown) [BC19300] | ≥ 25 µM |
| CCC1Oc2c(cc(Br)cc2S(=O)(=O)NC2CCCCC2)NC1=O (stereo not shown) [BC19233] | ≥ 25 µM |
| CC1Oc2c(cc(Br)cc2S(=O)(=O)NCc2ccc(C(F)(F)F)cc2)NC1=O (stereo not shown) [BC19365] | 1 to 25 µM |
| CCC1Oc2cc(S(=O)(=O)Nc3ccc(C)c(Cl)c3)c(Br)cc2N(C)C1=O (stereo not shown) [BC19938] | ≥ 25 µM |
| CS(=O)(=O)c1cc2c(c(S(=O)(=O)Nc3cccc(F)c3)c1)OCC(=O)N2 [BC19426] | ≥ 25 µM |
| CCc1ccc(NS(=O)(=O)c2cc(S(=O)(=O)CC)cc3c2OCC(=O)N3)cc1 [BC19492] | ≥ 25 µM |
| CCc1ccc(NS(=O)(=O)c2cc(Br)cc3c2OCC(=O)N3)cc1 [BC19179] | 1 to 25 µM |
| CCNS(=O)(=O)c1cc2c(cc1Cl)NC(=O)C(C)O2 (stereo not shown) [BC19209] | ≥ 25 µM |
| CCC1Oc2cc(S(=O)(=O)Nc3cc(Cl)ccc3C)c(Cl)cc2NC1=O (stereo not shown) [BC19215] | ≥ 25 µM |
| CCC1Oc2cc(S(=O)(=O)Nc3ccc(C(C)C)cc3)c(Cl)cc2NC1=O (stereo not shown) [BC19210] | < 1 µM |
| CC(C)NS(=O)(=O)c1cc(Cl)cc2c1OC(C)C(=O)N2 (stereo not shown) [BC19293] | ≥ 25 µM |
| CC(C)CC1Oc2c(cc(Br)cc2S(=O)(=O)Nc2ccc(F)cc2F)NC1=O (stereo not shown) [BC19769] | 1 to 25 µM |

| Structure (SMILES) | IC50 |
| --- | --- |
| CCc1ccc(NS(=O)(=O)c2cc3c(cc2Br)NC(=O)CO3)cc1 [BC19138] | < 1 µM |
| CS(=O)(=O)c1cc2c(c(S(=O)(=O)Nc3cccc(Cl)c3)c1)OCC(=O)N2 [BC19427] | ≥ 25 µM |
| CCc1cccc(NS(=O)(=O)c2cc(Br)cc3c2OCCNC3=O)c1 [BC19609] | 1 to 25 µM |
| CCC1Oc2c(cc(Cl)cc2S(=O)(=O)Nc2ccc(OC(F)(F)F)cc2)NC1=O (stereo not shown) [BC19734] | 1 to 25 µM |
| CC1Oc2c(cc(Br)cc2S(=O)(=O)Nc2ccc(F)cc2Cl)NC1=O (stereo not shown) [BC19289] | ≥ 25 µM |
| CC1Oc2cc(S(=O)(=O)N3CCOCC3)c(Br)cc2NC1=O (stereo not shown) [BC19217] | ≥ 25 µM |
| Cc1ccc(NS(=O)(=O)c2cc(S(C)(=O)=O)cc3c2OCC(=O)N3)cc1F [BC19423] | ≥ 25 µM |
| CC(C)CNS(=O)(=O)c1cc(Br)cc2c1OC(C)C(=O)N2 (stereo not shown) [BC19227] | ≥ 25 µM |
| CC(C)CC1Oc2c(cc(Br)cc2S(=O)(=O)Nc2ccccc2)NC1=O (stereo not shown) [BC19761] | 1 to 25 µM |
| CCC1Oc2cc(S(=O)(=O)Nc3ccc(OC(F)(F)F)cc3)c(Br)cc2N(C)C1=O (stereo not shown) [BC19922] | ≥ 25 µM |
| CCC1Oc2c(cc(Cl)cc2S(=O)(=O)Nc2ccc(C)cc2)NC1=O (stereo not shown) [BC19754] | 1 to 25 µM |
| O=C1COc2c(cc(Br)cc2S(=O)(=O)Nc2ccc(C(F)(F)F)cc2Cl)N1 [BC19384] | ≥ 25 µM |
| CC(C)CC1Oc2cc(S(=O)(=O)Nc3ccc(OC(F)(F)F)cc3)c(Br)cc2NC1=O (stereo not shown) [BC19758] | ≥ 25 µM |
| O=C1COc2c(cc(Cl)cc2S(=O)(=O)Nc2ccc(OC(F)(F)F)cc2)N1 [BC19172] | ≥ 25 µM |
| CC1Oc2cc(S(=O)(=O)N3CCN(C)CC3)c(Br)cc2NC1=O (stereo not shown) [BC19219] | ≥ 25 µM |
| CCC1Oc2c(cc(Br)cc2S(=O)(=O)NCc2ccc(C(F)(F)F)cc2)NC1=O (stereo not shown) [BC19377] | ≥ 25 µM |
| CS(=O)(=O)c1cc2c(c(S(=O)(=O)Nc3ccc(C#N)cc3)c1)OCC(=O)N2 [BC19431] | ≥ 25 µM |
| CCC1Oc2cc(S(=O)(=O)Nc3ccc(Cl)cc3)c(Cl)cc2NC1=O (stereo not shown) [BC19739] | 1 to 25 µM |
| O=C1NCCOc2c1cc(Br)cc2S(=O)(=O)Nc1ccc(OC(F)(F)F)cc1 [BC19550] | ≥ 25 µM |
| N#Cc1ccc(NS(=O)(=O)c2cc(Br)cc3c2OCCNC3=O)cc1 [BC19615] | ≥ 25 µM |
| COc1ccc(NS(=O)(=O)c2cc3c(cc2Br)N(C)C(=O)C(C)O3)cc1Cl (stereo not shown) [BC19919] | ≥ 25 µM |
| CC1Oc2cc(S(=O)(=O)NCc3ccc(C(F)(F)F)cc3)c(Br)cc2NC1=O (stereo not shown) [BC19358] | 1 to 25 µM |

| Structure (SMILES) | IC50 |
| --- | --- |
| CS(=O)(=O)c1cc2c(c(S(=O)(=O)Nc3ccc(F)cc3Cl)c1)OCC(=O)N2 [BC19428] | ≥ 25 µM |
| O=C1NCCOc2c1cc(Br)cc2S(=O)(=O)Nc1ccccc1 [BC19553] | ≥ 25 µM |
| CC1Oc2c(cc(Br)cc2S(=O)(=O)Nc2ccc(F)cc2)N(C)C1=O (stereo not shown) [BC19911] | ≥ 25 µM |
| Cc1ccc(NS(=O)(=O)c2cc(Br)cc3c2OCCNC3=O)cc1 [BC19612] | ≥ 25 µM |
| O=C1NCCOc2c1cc(Br)cc2S(=O)(=O)Nc1ccc(Cl)cc1 [BC19603] | ≥ 25 µM |
| CCC1Oc2c(cc(Br)cc2S(=O)(=O)NCc2ccc(OC(F)(F)F)cc2)NC1=O (stereo not shown) [BC19375] | 1 to 25 µM |
| CC1Oc2cc(S(=O)(=O)Nc3ccc(C#N)cc3)c(Br)cc2N(C)C1=O (stereo not shown) [BC19920] | 1 to 25 µM |
| CCOc1ccc(NS(=O)(=O)c2cc3c(cc2Cl)NC(=O)C(C)O3)cc1 (stereo not shown) [BC19281] | ≥ 25 µM |
| O=C1CCOc2cc(S(=O)(=O)Nc3ccc(F)cc3)c(Br)cc2N1 [BC19660] | ≥ 25 µM |
| COc1ccc(NS(=O)(=O)c2cc3c(cc2Br)NC(=O)CCO3)cc1 [BC19692] | < 1 µM |
| CC1Oc2cc(S(=O)(=O)Nc3ccc(F)cc3Cl)c(Br)cc2NC1=O (stereo not shown) [BC19285] | 1 to 25 µM |
| CCS(=O)(=O)c1cc2c(c(S(=O)(=O)Nc3cccc(F)c3)c1)OCC(=O)N2 [BC19440] | ≥ 25 µM |
| COc1ccc(NS(=O)(=O)c2cc3c(cc2Cl)NC(=O)C(C)O3)cc1Cl (stereo not shown) [BC19280] | 1 to 25 µM |
| CCc1ccc(NS(=O)(=O)c2cc3c(cc2Br)N(C)C(=O)C(CC)O3)cc1 (stereo not shown) [BC19932] | ≥ 25 µM |
| CCC1Oc2cc(S(=O)(=O)Nc3ccc(OC)c(Cl)c3)c(Cl)cc2NC1=O (stereo not shown) [BC19743] | ≥ 25 µM |
| COc1ccc(NS(=O)(=O)c2cc(Br)cc3c2OC(C)C(=O)N3C)cc1Cl (stereo not shown) [BC19909] | ≥ 25 µM |
| COc1ccc(NS(=O)(=O)c2cc(Br)cc3c2OCCC(=O)N3)cc1Cl [BC19688] | 1 to 25 µM |
| Cc1ccc(NS(=O)(=O)c2cc(Br)cc3c2OC(CC(C)C)C(=O)N3)cc1Cl (stereo not shown) [BC19767] | 1 to 25 µM |
| Cc1ccc(NS(=O)(=O)c2cc3c(cc2Br)N(C)C(=O)C(C)O3)cc1 (stereo not shown) [BC19912] | ≥ 25 µM |
| CCC1Oc2cc(S(=O)(=O)NCc3ccc(F)cc3F)c(Br)cc2NC1=O (stereo not shown) [BC19368] | ≥ 25 µM |
| CCC1Oc2cc(S(=O)(=O)Nc3ccc(F)c(F)c3)c(Br)cc2N(C)C1=O (stereo not shown) [BC19926] | ≥ 25 µM |
| CCc1ccc(NS(=O)(=O)c2cc(Br)cc3c2OC(CC)C(=O)N3C)cc1 (stereo not shown) [BC19931] | ≥ 25 µM |

| Structure (SMILES) | IC50 |
| --- | --- |
| CC1Oc2cc(S(=O)(=O)Nc3ccc(F)c(F)c3)c(Br)cc2NC1=O (stereo not shown) [BC19284] | ≥ 25 µM |
| Cc1cc2c(cc1S(=O)(=O)Nc1ccc(Cl)cc1)OCC(=O)N2 [BC19131] | < 1 µM |
| CC1Oc2c(cc(Cl)cc2S(=O)(=O)Nc2cccc(Cl)c2)NC1=O (stereo not shown) [BC19716] | 1 to 25 µM |
| CCC1Oc2cc(S(=O)(=O)Nc3ccc(C(C)C)cc3)c(Br)cc2N(C)C1=O (stereo not shown) [BC19934] | ≥ 25 µM |
| CS(=O)(=O)c1cc2c(c(S(=O)(=O)Nc3ccc(OC(F)(F)F)cc3)c1)OCC(=O)N2 [BC19422] | ≥ 25 µM |
| O=C1COc2c(cc(Br)cc2S(=O)(=O)NCc2ccc(C(F)(F)F)cc2)N1 [BC19382] | 1 to 25 µM |
| CC(C)CC1Oc2cc(S(=O)(=O)Nc3ccc(F)cc3)c(Br)cc2NC1=O (stereo not shown) [BC19782] | ≥ 25 µM |
| CCS(=O)(=O)c1cc2c(c(S(=O)(=O)Nc3ccccc3)c1)OCC(=O)N2 [BC19437] | ≥ 25 µM |
| CC1Oc2c(cc(Br)cc2S(=O)(=O)N2CCOCC2)NC1=O (stereo not shown) [BC19226] | ≥ 25 µM |
| CCc1ccc(NS(=O)(=O)c2cc3c(cc2Br)NC(=O)C(C)O3)cc1 (stereo not shown) [BC19216] | < 1 µM |
| COCCNC(=O)N1c2cc(S(=O)(=O)N3CCCC3)ccc2NC(=O)C1C (stereo not shown) [BC19299] | 1 to 25 µM |
| CCS(=O)(=O)c1cc2c(c(S(=O)(=O)Nc3ccc(OC(F)(F)F)cc3)c1)OCC(=O)N2 [BC19435] | ≥ 25 µM |
| CCc1ccc(NS(=O)(=O)c2cc(Br)cc3c2OCCC(=O)N3)cc1 [BC19686] | 1 to 25 µM |
| CC1Oc2c(cc(Br)cc2S(=O)(=O)Nc2ccc(F)cc2F)N(C)C1=O (stereo not shown) [BC19798] | ≥ 25 µM |
| COc1ccc(NS(=O)(=O)c2cc(Br)cc3c2OCC(=O)N3)cc1 [BC19175] | ≥ 25 µM |
| CCC1Oc2cc(S(=O)(=O)Nc3ccc(F)cc3F)c(Br)cc2N(C)C1=O (stereo not shown) [BC19914] | 1 to 25 µM |
| CC1Oc2c(cc(Br)cc2S(=O)(=O)Nc2ccc(Cl)cc2)N(C)C1=O (stereo not shown) [BC19791] | ≥ 25 µM |
| CC(C)CC1Oc2c(cc(Br)cc2S(=O)(=O)Nc2cccc(Cl)c2)NC1=O (stereo not shown) [BC19775] | ≥ 25 µM |
| CC(C)(C)C1CCC(NS(=O)(=O)c2cc3c(cc2Br)NC(=O)CO3)CC1 (stereo not shown) [BC19388] | ≥ 25 µM |
